Assay results reported in PubChem BioAssay (NCI).
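All cell lines were grown in 96-well plates and treated with compound for 48 hours. At the TGI there is no net growth.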

How the values were obtained:
Assay in all cases: NCI-60 cell line screen, 48 h
[1] = tested on: 786-0 renal
[2] = tested on: A498 renal
[3] = tested on: A549 NSCLC
[4] = tested on: ACHN renal
[5] = tested on: BT-549 breast
[6] = tested on: CAKI-1 renal
[7] = tested on: CCRF-CEM leukemia
[8] = tested on: COLO 205 colon
[9] = tested on: DU-145 prostate
[10] = tested on: EKVX NSCLC
[11] = tested on: HCT-116 colon
[12] = tested on: HCT-15 colon
[13] = tested on: HL-60(TB) leukemia
[14] = tested on: HOP-62 NSCLC
[15] = tested on: HOP-92 NSCLC
[16] = tested on: HS 578T breast
[17] = tested on: HT29 colon
[18] = tested on: IGROV1 ovarian
[19] = tested on: K-562 leukemia
[20] = tested on: KM12 colon
[21] = tested on: LOX IMVI melanoma
[22] = tested on: M14 melanoma
[23] = tested on: MALME-3M melanoma
[24] = tested on: MCF7 breast
[25] = tested on: MDA-MB-231 breast
[26] = tested on: MDA-MB-435
[27] = tested on: MDA-N
[28] = tested on: MOLT-4 leukemia
[29] = tested on: NCI-H23 lung
[30] = tested on: NCI-H460 lung
[31] = tested on: NCI-H522 lung
[32] = tested on: NCI/ADR-RES ovarian
[33] = tested on: OVCAR-3 ovarian
[34] = tested on: OVCAR-4 ovarian
[35] = tested on: OVCAR-5 ovarian
[36] = tested on: OVCAR-8 ovarian
[37] = tested on: PC-3 prostate
[38] = tested on: RPMI-8226 leukemia
[39] = tested on: RXF 393 renal
[40] = tested on: SF-268 CNS
[41] = tested on: SF-295 CNS
[42] = tested on: SF-539 CNS
[43] = tested on: SK-MEL-2 melanoma
[44] = tested on: SK-MEL-28 melanoma
[45] = tested on: SK-MEL-5 melanoma
[46] = tested on: SK-OV-3 ovarian
[47] = tested on: SN12C renal
[48] = tested on: SNB-19 CNS
[49] = tested on: SNB-75 CNS
[50] = tested on: SR leukemia
[51] = tested on: SW-620 colon
[52] = tested on: T-47D breast
[53] = tested on: TK-10 renal
[54] = tested on: U251 CNS
[55] = tested on: UACC-257 melanoma
[56] = tested on: UACC-62 melanoma
[57] = tested on: UO-31 renal
[58] = tested on: NCI-H226 lung

## Cn1c(N/N=C/c2ccc(Cl)cc2)nc(-c2ccc(Cl)cc2)c(C#N)c1=O
[1]
  TGI: 29.8 µM
[2]
  TGI: 93.5 µM
[3]
  TGI: 39.2 µM
[4]
  TGI: > 100 µM
[5]
  TGI: 67.5 µM
[6]
  TGI: > 100 µM
[7]
  TGI: > 100 µM
[8]
  TGI: > 100 µM
[9]
  TGI: 46.1 µM
[10]
  TGI: 68.4 µM
[11]
  TGI: 26.3 µM
[12]
  TGI: > 100 µM
[13]
  TGI: > 100 µM
[14]
  TGI: 25.1 µM
[15]
  TGI: 57.7 µM
[16]
  TGI: 86.4 µM
[17]
  TGI: > 100 µM
[18]
  TGI: 25.6 µM
[19]
  TGI: > 100 µM
[20]
  TGI: 57.6 µM
[21]
  TGI: 57.6 µM
[22]
  TGI: 42 µM
[23]
  TGI: 91.7 µM
[24]
  TGI: 67.8 µM
[25]
  TGI: 48.8 µM
[26]
  TGI: > 100 µM
[27]
  TGI: > 100 µM
[28]
  TGI: > 100 µM
[29]
  TGI: 38.6 µM
[30]
  TGI: > 100 µM
[31]
  TGI: 33.6 µM
[32]
  TGI: > 100 µM
[33]
  TGI: 32.7 µM
[34]
  TGI: 61.7 µM
[35]
  TGI: 51.1 µM
[36]
  TGI: 44.6 µM
[37]
  TGI: 90.1 µM
[38]
  TGI: > 100 µM
[39]
  TGI: 57.8 µM
[40]
  TGI: > 100 µM
[41]
  TGI: 41.5 µM
[42]
  TGI: 45 µM
[43]
  TGI: 33.1 µM
[44]
  TGI: > 100 µM
[45]
  TGI: > 100 µM
[46]
  TGI: > 100 µM
[47]
  TGI: > 100 µM
[48]
  TGI: > 100 µM
[49]
  TGI: 73.2 µM
[50]
  TGI: > 100 µM
[51]
  TGI: > 100 µM
[52]
  TGI: > 100 µM
[53]
  TGI: 76.3 µM
[54]
  TGI: 72.1 µM
[55]
  TGI: > 100 µM
[56]
  TGI: 48.4 µM
[57]
  TGI: 33 µM

## N#C/C(=C(\O)C(=O)O)c1ccc(-c2cccc3ccccc23)cc1
[1]
  TGI: > 100 µM
[2]
  TGI: > 100 µM
[3]
  TGI: > 100 µM
[4]
  TGI: > 100 µM
[5]
  TGI: > 100 µM
[6]
  TGI: > 100 µM
[7]
  TGI: > 100 µM
[8]
  TGI: > 100 µM
[9]
  TGI: > 100 µM
[10]
  TGI: > 100 µM
[11]
  TGI: > 100 µM
[12]
  TGI: > 100 µM
[13]
  TGI: 81.9 µM
[14]
  TGI: > 100 µM
[15]
  TGI: > 100 µM
[16]
  TGI: > 100 µM
[17]
  TGI: > 100 µM
[18]
  TGI: > 100 µM
[19]
  TGI: > 100 µM
[20]
  TGI: > 100 µM
[21]
  TGI: > 100 µM
[22]
  TGI: > 100 µM
[23]
  TGI: > 100 µM
[24]
  TGI: > 100 µM
[25]
  TGI: > 100 µM
[26]
  TGI: > 100 µM
[27]
  TGI: > 100 µM
[28]
  TGI: 12.2 µM
[58]
  TGI: > 100 µM
[29]
  TGI: > 100 µM
[30]
  TGI: > 100 µM
[31]
  TGI: > 100 µM
[32]
  TGI: > 100 µM
[33]
  TGI: > 100 µM
[34]
  TGI: > 100 µM
[35]
  TGI: > 100 µM
[36]
  TGI: > 100 µM
[37]
  TGI: > 100 µM
[38]
  TGI: > 100 µM
[39]
  TGI: > 100 µM
[40]
  TGI: > 100 µM
[41]
  TGI: > 100 µM
[42]
  TGI: > 100 µM
[43]
  TGI: > 100 µM
[44]
  TGI: > 100 µM
[45]
  TGI: > 100 µM
[46]
  TGI: > 100 µM
[47]
  TGI: > 100 µM
[48]
  TGI: > 100 µM
[49]
  TGI: > 100 µM
[50]
  TGI: > 100 µM
[51]
  TGI: > 100 µM
[52]
  TGI: > 100 µM
[53]
  TGI: > 100 µM
[54]
  TGI: > 100 µM
[55]
  TGI: > 100 µM
[56]
  TGI: > 100 µM
[57]
  TGI: > 100 µM
